18 molecules from patent publication US10377770B2 (Novartis AG, priority 2015, dated 2019) can be followed below.

In this experiment the target is C-Raf FL (full length CRAF with Y340E and Y341E activating mutations, co-expressed with h14-3-3 zeta) (Homo sapiens (Human), UniProt P04049, Y340E/Y341E). Kind of experiment: In vitro Raf activity determination, AlphaScreen p-MEK readout, c-Raf (C-Raf FL). The class given is biochemical. The following applies: c-Raf approximately 4 nM, ATP 1 μM, pre-incubation 60 minutes, reaction 1 hour. Summed up:
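Full-length C-Raf (~4 nM) pre-incubated 60 min at room temperature with compound and kinase-dead biotinylated MEK1 (~10 nM) in Tris pH 7.5, 15 mM MgCl2, BSA, DTT. Reaction started with 1 μM ATP and run 1 h at room temperature. Phospho-MEK detected by AlphaScreen with anti-p-MEK antibody.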
A general note: In Alpha technology, singlet oxygen from a donor bead excites a nearby acceptor bead.

Usually IC50 stands for the concentration needed to halve the response being measured. Read a high IC50 as lower potency.

Chain of C-Raf FL (full length CRAF with Y340E and Y341E activating mutations, co-expressed with h14-3-3 zeta) (P04049 whole entry Y340E/Y341E): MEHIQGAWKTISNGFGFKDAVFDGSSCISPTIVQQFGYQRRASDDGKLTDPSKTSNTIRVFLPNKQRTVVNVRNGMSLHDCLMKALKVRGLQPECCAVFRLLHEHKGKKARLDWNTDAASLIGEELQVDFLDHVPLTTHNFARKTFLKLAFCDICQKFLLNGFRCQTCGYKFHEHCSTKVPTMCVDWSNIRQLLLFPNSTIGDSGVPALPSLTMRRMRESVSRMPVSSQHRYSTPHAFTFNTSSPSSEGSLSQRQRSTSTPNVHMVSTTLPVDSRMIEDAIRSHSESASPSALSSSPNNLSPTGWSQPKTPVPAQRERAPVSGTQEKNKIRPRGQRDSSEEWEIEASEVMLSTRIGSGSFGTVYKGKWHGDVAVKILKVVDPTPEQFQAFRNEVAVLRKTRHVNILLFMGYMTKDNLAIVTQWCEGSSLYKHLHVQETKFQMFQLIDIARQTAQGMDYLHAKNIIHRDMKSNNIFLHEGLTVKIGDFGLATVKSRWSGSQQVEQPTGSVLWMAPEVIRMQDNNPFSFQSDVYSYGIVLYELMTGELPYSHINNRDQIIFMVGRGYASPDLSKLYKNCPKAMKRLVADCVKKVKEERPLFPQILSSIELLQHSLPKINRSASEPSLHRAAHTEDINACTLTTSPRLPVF
Chain of C-Raf FL (full length CRAF with Y340E and Y341E activating mutations, co-expressed with h14-3-3 zeta) (P63104 whole entry partner): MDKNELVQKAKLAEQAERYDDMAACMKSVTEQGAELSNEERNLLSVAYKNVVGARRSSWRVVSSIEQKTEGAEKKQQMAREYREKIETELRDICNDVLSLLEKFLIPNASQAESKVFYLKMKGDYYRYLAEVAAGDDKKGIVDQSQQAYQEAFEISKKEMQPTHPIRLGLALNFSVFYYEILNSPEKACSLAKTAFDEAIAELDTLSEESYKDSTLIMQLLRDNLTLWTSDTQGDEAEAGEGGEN

`Cc1ccc(NC(=O)c2ccnc(C(F)(F)F)c2F)cc1-c1cc2n(c(=O)c1)CC[C@@H]1COCCN21` [Example 415, (R)-3-fluoro-N-(4-methyl-3-(8-oxo-1,2,4,4a,5,6-hexahydro-8H-pyrido[2′,1′:2,3]pyrimido[6,1-c][1,4]oxazin-10-yl)phenyl)-2-(trifluoromethyl)isonicotinamide] registered an IC50 of 0.8 nM. `Cc1ccc(NC(=O)c2ccnc(C(F)(F)F)c2F)cc1-c1cc2n(c(=O)c1)CC[C@H]1COCCN21` [Example 416, (S)-3-fluoro-N-(4-methyl-3-(8-oxo-1,2,4,4a,5,6-hexahydro-8H-pyrido[2′,1′:2,3]pyrimido[6,1-c][1,4]oxazin-10-yl)phenyl)-2-(trifluoromethyl)isonicotinamide] returned an IC50 of 0.4 nM. Molecule `Cc1ccc(NC(=O)c2ccnc(C(C)(C)F)c2)cc1-c1cc2n(c(=O)c1)CC[C@H]1CCOCCN21` [Example 417, (S)-2-(2-fluoropropan-2-yl)-N-(4-methyl-3-(9-oxo-1,2,5,5a,6,7-hexahydro-4H,9H-pyrido[2′,1′:2,3]pyrimido[1,6-d][1,4]oxazepin-11-yl)phenyl)isonicotinamide] gave an IC50 of 0.5 nM.

With `Cc1ccc(NC(=O)c2ccnc(C(F)(F)F)c2)cc1-c1cc(F)c2c(c1)N1CCOC[C@H]1[C@](F)(CO)C2` [Example 419], 0.5 nM corresponded to half-maximal inhibition (IC50). `Cc1ccc(NC(=O)c2ccnc(C(C)(F)F)c2)cc1-c1cc(F)c2c(c1)N1CCOC[C@H]1[C@](F)(CO)C2` [Example 420, N-(3-((4aS,5S)-5,7-difluoro-5-(hydroxymethyl)-1,2,4,4a,5,6-hexahydro-[1,4]oxazino[4,3-a]quinolin-9-yl)-4-methylphenyl)-2-(1,1-difluoroethyl)isonicotinamide]: the IC50 was 0.6 nM. `Cc1ncc(NC(=O)c2cccc(C(F)(F)F)c2)cc1-c1cc(F)c2c(c1)N1CCOC[C@H]1[C@](F)(CO)C2` [Example 421, N-(5-((4aS,5S)-5,7-difluoro-5-(hydroxymethyl)-1,2,4,4a,5,6-hexahydro-[1,4]oxazino[4,3-a]quinolin-9-yl)-6-methylpyridin-3-yl)-3-(trifluoromethyl)benzamide] returned a concentration for half-maximal inhibition (IC50) of 0.8 nM. For `Cc1ccc(NC(=O)c2ccnc(C(C)(C)F)c2)cc1-c1cc(F)c2c(c1)N1CCOC[C@H]1[C@](F)(CO)C2` [Example 422, N-(3-((4aS,5S)-5,7-difluoro-5-(hydroxymethyl)-1,2,4,4a,5,6-hexahydro-[1,4]oxazino[4,3-a]quinolin-9-yl)-4-methylphenyl)-2-(2-fluoropropan-2-yl)isonicotinamide], the IC50 turned out to be 1 nM. The molecule `Cc1ccc(NC(=O)c2cnnc(C(F)(F)F)c2)cc1-c1cc(F)c2c(c1)N1CCOC[C@H]1[C@](F)(CO)C2` [Example 423, N-(3-((4aS,5S)-5,7-difluoro-5-(hydroxymethyl)-1,2,4,4a,5,6-hexahydro-[1,4]oxazino[4,3-a]quinolin-9-yl)-4-methylphenyl)-6-(trifluoromethyl)pyridazine-4-carboxamide] gave an IC50 of 0.7 nM. This IC50 and that of the molecule before are within 1.5-fold of each other.

With `Cc1ccc(NC(=O)c2ccnc(C(F)(F)F)c2)cc1-c1cc(F)c2c(c1)N1CCOC[C@@H]1[C@@](F)(CO)C2` [Example 424, N-(3-((4aR,5R)-5,7-difluoro-5-(hydroxymethyl)-1,2,4,4a,5,6-hexahydro-[1,4]oxazino[4,3-a]quinolin-9-yl)-4-methylphenyl)-2-(trifluoromethyl)isonicotinamide], the IC50 came out at 0.2 nM.

As to `Cc1ccc(NC(=O)c2ccnc(C(C)(F)F)c2)cc1-c1cc(F)c2c(c1)N1CCOC[C@@H]1[C@@](F)(CO)C2` [Example 425, N-(3-((4aR,5R)-5,7-difluoro-5-(hydroxymethyl)-1,2,4,4a,5,6-hexahydro-[1,4]oxazino[4,3-a]quinolin-9-yl)-4-methylphenyl)-2-(1,1-difluoroethyl)isonicotinamide], half-maximal inhibition (IC50) was put at 0.4 nM. As to `Cc1ncc(NC(=O)c2cccc(C(F)(F)F)c2)cc1-c1cc(F)c2c(c1)N1CCOC[C@@H]1[C@@](F)(CO)C2` [Example 426, N-(5-((4aR,5R)-5,7-difluoro-5-(hydroxymethyl)-1,2,4,4a,5,6-hexahydro-[1,4]oxazino[4,3-a]quinolin-9-yl)-6-methylpyridin-3-yl)-3-(trifluoromethyl)benzamide], the half-maximal inhibitory concentration (IC50) was 0.4 nM. This counts as sub-nanomolar.

As for `Cc1ccc(NC(=O)c2ccnc(C(C)(C)F)c2)cc1-c1cc(F)c2c(c1)N1CCOC[C@@H]1[C@@](F)(CO)C2` [Example 427, N-(3-((4aR,5R)-5,7-difluoro-5-(hydroxymethyl)-1,2,4,4a,5,6-hexahydro-[1,4]oxazino[4,3-a]quinolin-9-yl)-4-methylphenyl)-2-(2-fluoropropan-2-yl)isonicotinamide], the IC50 worked out at 0.6 nM. `Cc1ccc(NC(=O)c2cnnc(C(F)(F)F)c2)cc1-c1cc(F)c2c(c1)N1CCOC[C@@H]1[C@@](F)(CO)C2` [Example 428, N-(3-((4aR,5R)-5,7-difluoro-5-(hydroxymethyl)-1,2,4,4a,5,6-hexahydro-[1,4]oxazino[4,3-a]quinolin-9-yl)-4-methylphenyl)-6-(trifluoromethyl)pyridazine-4-carboxamide] displayed a 50% inhibitory concentration (IC50) of 0.1 nM. Turning to `Cc1ccc(NC(=O)c2ccnc(C(F)(F)F)c2)cc1-c1cc(F)c2c(c1)N1CCOC[C@H]1[C@@](F)(CO)C2` [Example 429, N-(3-((4aS,5R)-5,7-difluoro-5-(hydroxymethyl)-1,2,4,4a,5,6-hexahydro-[1,4]oxazino[4,3-a]quinolin-9-yl)-4-methylphenyl)-2-(trifluoromethyl)isonicotinamide], the midpoint of inhibition, the IC50, lay at 0.8 nM. In the case of `Cc1ccc(NC(=O)c2ccnc(C(C)(F)F)c2)cc1-c1cc(F)c2c(c1)N1CCOC[C@H]1[C@@](F)(CO)C2` [Example 430, N-(3-((4aS,5R)-5,7-difluoro-5-(hydroxymethyl)-1,2,4,4a,5,6-hexahydro-[1,4]oxazino[4,3-a]quinolin-9-yl)-4-methylphenyl)-2-(1,1-difluoroethyl)isonicotinamide], half-maximal inhibition (IC50) required 0.6 nM.

With `Cc1ncc(NC(=O)c2cccc(C(F)(F)F)c2)cc1-c1cc(F)c2c(c1)N1CCOC[C@H]1[C@@](F)(CO)C2` [Example 431, N-(5-((4aS,5R)-5,7-difluoro-5-(hydroxymethyl)-1,2,4,4a,5,6-hexahydro-[1,4]oxazino[4,3-a]quinolin-9-yl)-6-methylpyridin-3-yl)-3-(trifluoromethyl)benzamide], half-maximal inhibition (IC50) was put at 4.4 nM. `Cc1ccc(NC(=O)c2ccnc(C(C)(C)F)c2)cc1-c1cc(F)c2c(c1)N1CCOC[C@H]1[C@@](F)(CO)C2` [Example 432, N-(3-((4aS,5R)-5,7-difluoro-5-(hydroxymethyl)-1,2,4,4a,5,6-hexahydro-[1,4]oxazino[4,3-a]quinolin-9-yl)-4-methylphenyl)-2-(2-fluoropropan-2-yl)isonicotinamide] returned a half-inhibitory concentration (IC50) of 0.7 nM. For `Cc1ccc(NC(=O)c2cnnc(C(F)(F)F)c2)cc1-c1cc(F)c2c(c1)N1CCOC[C@H]1[C@@](F)(CO)C2` [Example 433, N-(3-((4aS,5R)-5,7-difluoro-5-(hydroxymethyl)-1,2,4,4a,5,6-hexahydro-[1,4]oxazino[4,3-a]quinolin-9-yl)-4-methylphenyl)-6-(trifluoromethyl)pyridazine-4-carboxamide], the IC50 was determined as 0.1 nM.
